Measurements reported in PubChem BioAssay (NCI).
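Method: 48-hour compound exposure of cells in 96-well plates, five concentrations, linear interpolation of endpoints. GI50 marks 50% less growth. At the TGI there is no net growth.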

How the values were obtained:
Test in all cases: DTP human tumour cell line panel, 48 h
786-0 renal = system: 786-0 renal
EKVX NSCLC = system: EKVX NSCLC
HT29 colon = system: HT29 colon
IGROV1 ovarian = system: IGROV1 ovarian
K-562 leukemia = system: K-562 leukemia
MALME-3M melanoma = system: MALME-3M melanoma
OVCAR-5 ovarian = system: OVCAR-5 ovarian
SN12C renal = system: SN12C renal
SR leukemia = system: SR leukemia
UACC-62 melanoma = system: UACC-62 melanoma

SMILES	TGI (786-0 renal)	TGI (EKVX NSCLC)	TGI (HT29 colon)	TGI (IGROV1 ovarian)	TGI (K-562 leukemia)	TGI (MALME-3M melanoma)	TGI (OVCAR-5 ovarian)	TGI (SN12C renal)	TGI (SR leukemia)	TGI (UACC-62 melanoma)	GI50 (786-0 renal)	GI50 (EKVX NSCLC)	GI50 (HT29 colon)	GI50 (IGROV1 ovarian)	GI50 (K-562 leukemia)	GI50 (MALME-3M melanoma)	GI50 (OVCAR-5 ovarian)	GI50 (SN12C renal)	GI50 (SR leukemia)	GI50 (UACC-62 melanoma)
Cc1ccc(C)c(NC(=O)CCc2n[nH]c(=S)o2)c1	> 100 µM	> 100 µM	> 100 µM	> 100 µM	> 100 µM	> 100 µM	> 100 µM	> 100 µM	> 100 µM	> 100 µM										
COc1cc([N+](=O)[O-])c2ncccc2c1O	> 100 µM	78.1 µM	22.9 µM	25.5 µM	> 100 µM	4.74 µM	> 100 µM	> 100 µM	> 100 µM	5.1 µM	17.9 µM	18.8 µM	2.26 µM	4.51 µM	38.2 µM	1.99 µM	5.09 µM	3.06 µM	20.6 µM	1.94 µM
NC(=NC1C2CC3CC(C2)CC1C3)Nc1ccc(I)cc1 (centres undefined)	15.5 µM	14.3 µM	10.8 µM	13.5 µM	15.7 µM	5.36 µM	21.7 µM	14.6 µM	6.84 µM	9.33 µM	4.03 µM	3.43 µM	3.1 µM	3.2 µM	3.29 µM	2.09 µM	4.5 µM	3.82 µM	2.49 µM	2.88 µM
O=C1CCCc2c(O)ccc(O)c21	> 100 µM	> 100 µM	> 100 µM	> 100 µM	> 100 µM	> 100 µM	> 100 µM	> 100 µM	91.2 µM	> 100 µM										
C[P+](C)(CC(F)(F)F)c1ccccc1	> 100 µM	> 100 µM	> 100 µM	> 100 µM	> 100 µM	> 100 µM	> 100 µM	> 100 µM	> 100 µM	> 100 µM										
CCOC(=O)c1cc2cc([N+](=O)[O-])ccc2oc1=O	> 100 µM	> 100 µM	> 100 µM	> 100 µM	> 100 µM	> 100 µM	> 100 µM	> 100 µM	> 100 µM	> 100 µM										
CC1=CC(=O)c2[nH]c3ccccc3c2C1=O	7.71 µM	8.48 µM	> 25 µM	17.1 µM	14 µM	8.54 µM	12.2 µM	8.17 µM	16.7 µM	7.67 µM	4.27 µM	4.04 µM	17.6 µM	6.63 µM	5.56 µM	4.85 µM		4.59 µM	5.71 µM	4.21 µM
CCc1ccc(/C=C2/SC(=S)NC2=O)cc1	81.3 µM	73.2 µM	> 80 µM	> 100 µM	> 100 µM	> 80.6 µM	90.6 µM	81.4 µM	> 84.9 µM	28.9 µM	22.6 µM	21.9 µM	27.9 µM	37.5 µM	29.3 µM	23.2 µM	24.1 µM	20.3 µM	19.4 µM	12.3 µM
Clc1ccc(CCN2CCOCC2)c(Cl)c1	> 100 µM	> 100 µM	> 100 µM	> 100 µM	> 100 µM	> 100 µM	> 100 µM	> 100 µM	> 100 µM	> 100 µM										
C1CCN2CC34CC(CC5CCCN(C6CCCC3N6)C54)C2C1 (centres undefined)	> 100 µM	> 100 µM	> 100 µM	> 100 µM	> 100 µM	> 100 µM	> 100 µM	> 100 µM	> 100 µM	> 100 µM										
N#CC(/C(=N\NC(N)=S)C(=O)NC1C2CC3CC(C2)CC1C3)c1ccc(Cl)cc1 (centres undefined)	> 100 µM	> 100 µM	> 100 µM	> 100 µM	> 100 µM	> 100 µM	> 100 µM	> 100 µM	> 100 µM	> 100 µM										
Cc1cc(C#Cc2ccccc2)ccc1-n1c(/C=C/c2ccc(O)cc2)nc2ccccc2c1=O	28.7 µM	> 100 µM	16.6 µM	> 100 µM	> 100 µM	7.31 µM	94.7 µM	38.3 µM	29 µM	21.7 µM	3.65 µM	2.43 µM	3.33 µM	20.6 µM	2 µM	2.12 µM	4.59 µM	3.77 µM	2.45 µM	3.48 µM
CCCCCCCCSC(SCCCCCCCC)=C1C(=O)N(c2ccccc2)N=C1C	> 100 µM	> 100 µM	> 100 µM	> 100 µM	84.6 µM	> 100 µM	> 100 µM	> 100 µM	34.6 µM	> 100 µM										
